Results from publication PMC8065212, “The active form of the influenza cap-snatching endonuclease inhibitor baloxavir marboxil is a tight binding inhibitor” (The Journal of Biological Chemistry, 2021).
Several values for one entry are separate records, joined by “and”; a condition that tells them apart may be missing. Equal values may be shown once. Entries after “also recorded” stand apart in the source; their conditions may differ. Read-outs that look alike come from different tables or passages of the source.

Key:
FluB-ht = experiment: Michaelis-Menten kinetics of BXA inhibition; format: biochemical, Influenza B; settings: 25 nM FluB-ht, substrate as indicated
From the text: Supplementary Figure S4. Michaelis-Menten kinetics of BXA inhibition. (A) Scheme detailing the experimental setup and representative data showing the effect of BXA on substrate utilization by FluB-ht. (B) Graphic representation and analysis of the data presented in panel A are shown on the left-hand side graph. The effects of increasing concentrations of BXA on kcat and Km are illustrated on the right-hand side graph. Data represents the average of two independent experiments. The final reaction conditions were as follows: 30 mM Tris-HCL pH 7.5, 25 mM NaCl, 5 mM MgCl2, 25 nM FluB-ht, 1.7 µM vRNA, 5% DMSO, BXA as indicated and 20-nt capped substrate as indicated. The indicated substrate concentrations were achieved by mixing 0.1 µM 20-nt radiolabeled capped substrate RNA with increasing amounts of unlabeled substrate. […] The data point at 2.1 µM was therefore not considered for kcat and Km measurements. […] Tight binding of enzyme and inhibitor depletes the concentration of free enzyme and the steady-state assumption is no longer valid.

FluB-ht WT [1] = format: biochemical; settings: 75 nM BXA
FluB-ht WT [2] = format: biochemical; settings: 75 nM BXA, 55 nM FluB-ht WT
[3] = target: FluB-ht WT (recombinant influenza B heterotrimeric PA/PB1/PB2 polymerase, PA endonuclease) (Influenza B virus, UniProt Q5V8Z9); experiment: biochemical
[4] = tested on: cap-snatching endonuclease (PA); settings: enzyme concentration not indicated; cited from earlier work
influenza infection = settings: cited from earlier work
influenza virus = settings: cited from earlier work
influenza = settings: single dose, postexposure prophylaxis; placebo group 13.6%; cited from earlier work

Question: What does the source list for O=C1c2c(O)c(=O)ccn2N([C@@H]2c3ccccc3SCc3c2ccc(F)c3F)[C@@H]2COCCN12 [BXA, baloxavir acid]?
Answer: effects of increasing concentrations of BXA on kcat and Km (FluB-ht): reduction in kcat and constant Km values; inhibition of endonuclease activity by order of addition (FluB-ht WT [1]; 55 nM FluB-ht WT, 1 hour preincubation): inhibition was only observed under conditions where an E:I:Mg^2+ complex was preformed; also recorded: Preincubation E, I, and MgCl2 is required for inhibition; nuclease activity over longer periods of time after preformed E:I:Mg2+ complex (FluB-ht WT [1]; up to 120 min): negligible; preincubation time for maximal inhibition (FluB-ht WT [2]): ~30 min; IC50 [3]: 112 nM; Ki [3]: 12 nM; dependence of IC50 on substrate concentration ([3]; 100, 300 and 500 nM 20-nt substrate, 55 nM FluB-ht WT (Fig. S1)): independent within a narrow range of substrate concentrations; slope of plot of IC50 versus enzyme concentration ([3]; WT): 0.56 and ~0.5; IC50 [4]: ~2 nM

Question: For CCOC(=O)C1=C[C@@H](OC(CC)CC)[C@H](NC(C)=O)[C@@H](N)C1 [oseltamivir], which “reduction in time until symptom resolution” value (influenza infection) is on record?
Answer: The value was 20–25%.

Question: Which EC50 (influenza virus) does the source give for COC(=O)OCOc1c2n(ccc1=O)N([C@@H]1c3ccccc3SCc3c1ccc(F)c3F)[C@@H]1COCCN1C2=O [BXM, Baloxavir marboxil] here?
Answer: Its EC50 is “low nanomolar range”.

Question: And the “reduction in time until symptom resolution” value (influenza infection; human, in vivo)?
Answer: The value was 20–25%.

Question: And the household transmissions (influenza)?
Answer: The household transmissions was 1.9%.
